Read-outs that look alike come from different tables or passages of the source.
Assays:
[1] = tested on: Mitochondrial Membrane Potential; test: cells; settings: for log(1/EC10) MMP: input of the ToxPi score, values up to 1.00; for Specificity ratio (SRbaseline) SRMMP: against baseline cytotoxicity; for Specificity ratio (SRcytotoxicity) SRMMP: against experimental cytotoxicity; for Relative effect potency REPMMP: relative to BPA; for SR (MMP inhibition): specificity ratio
Text: (§1) All bioassay media components and the ERα-UAS-bla GripTite and PPARγ-UAS-bla cells were obtained from Thermo Fisher Scientific (Waltham, MA, USA). AREc32 reporter gene cells based on MCF7 were provided by C. Roland Wolf (Cancer Research UK); AhR CALUX cells (H4L7.5c2 derived from H4IIe) were provided by Michael Denison (UC Davis, USA); and SH-SY5Y cells were purchased from Sigma-Aldrich.
(§2) Cell culture conditions and bioassay protocols including response detection are provided in Text S2.1–2.4 and Table S3. − Cell viability was determined from cell confluency using an IncuCyte S3 Live-Cell Analysis System (Sartorius AG, Essen, Germany) before and after exposure, except for SH-SY5Y cells (live–dead staining with Nuclear Green LcS1 and propidium iodide, Abcam, UK). For metabolic activation experiments, cell viability was assessed using the ToxBLAzer DualScreen Kit (Thermo Fisher Scientific) to capture the remaining toxicity in ERα-UAS-bla GripTite after treatment with the aCYP catalyst (details in Text S2.4).
(§3) For ARE, the concentration that triggered an induction ratio of 1.5 (ECIR1.5) was used as the benchmark value, as detailed in Text S2.5. IC10 values also served as a threshold for data analysis in all assays; only concentrations below IC10 were considered when deriving EC10 or ECIR1.5. […]
(§4) S2: Cell culture and bioassays
(§5) S2.1: Cell Culturing Conditions
All suppliers and sources are given in detail in SI-Excel S3. The bioassay media for the different assays were prepared as follows: Assay medium for ER alpha-UAS-bla GripTite (ERα) and […]
2% charcoal-stripped FBS, and 100 U/mL penicillin-streptomycin. MitoOxTox and AhR assay medium was comprised of 90% DMEM with GlutaMAX, supplemented with 10% FBS, and 100 U/mL penicillin-streptomycin. […]
S2.2: Cell Seeding and Incubation. For all bioassays, cell suspensions in the respective assay medium were dispensed into each well of 384-well plates using a MultiFlo Dispenser (Biotek, (now Agilent), Winooski, VT, U.S.). After seeding, the plates were incubated at 37° C and 5% CO₂ for […]. The final cell densities and plate types were as follows: Black poly-D-lysine […]
(§6) 6500 cells/well, ERα: 5000 cells/well. White 384-well plates with a clear bottom (Product No.
NYC, U.S.) for AhR: 3250 cells/well. Black Collagen I coated plates were used (Product No.
S2.3: Chemical Dosing and Assay Analysis Procedures. The dosing procedure and high-throughput assay workflow have been described in detail before. 9 The dosing concentrations […]
Stock solutions were then either

SH-SY5Y cells = test: cells; settings: for EC10: Homo sapiens, SH-SY5Y; for EC10, linear: linear model; for Specificity ratio (SRbaseline) SRNOI: against baseline cytotoxicity; for Specificity ratio (SRcytotoxicity) SRNOI: against experimental cytotoxicity; for Relative effect potency REPNOI: relative to BPA;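 for Relative effect potency REPNOI: EC10 of BPA divided by EC10 of the test compound so values above 1 mean more potent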;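 for Specificity ratio (SRbaseline) SRNOI: ratio of predicted baseline cytotoxicity IC10 to the neurite outgrowth inhibition EC10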
Text: as §1, §2, §3, §4, §5
(§7) All suppliers and sources are given in detail in SI-Excel S3. The bioassay media for the different assays were prepared as follows: Assay medium for ER alpha-UAS-bla GripTite (ERα) and PPAR gamma-UAS-bla 293H (PPARγ) was prepared with 98% Opti-MEM, supplemented with 2% charcoal-stripped FBS, and 100 U/mL penicillin-streptomycin. MitoOxTox and AhR assay medium was comprised of 90% DMEM with GlutaMAX, supplemented with 10% FBS, and 100 U/mL penicillin-streptomycin. Neurotoxicity assay medium consisted of the neurobasal […]
(§8) (1 picture or pasted object on this page, not shown here) […]
(§9) medium, supplemented with 2% B-27 Supplement and 2 mM GlutaMAX Supplement. SH - SY5Y cells were differentiated with 10 µM all-trans retinoic acid prior to the assay.
(§10) S2.2: Cell Seeding and Incubation. For all bioassays, cell suspensions in the respective assay medium were dispensed into each well of 384-well plates using a MultiFlo Dispenser (Biotek, (now Agilent), Winooski, VT, U.S.). After seeding, the plates were incubated at 37° C and 5% CO₂ for […]. The final cell densities and plate types were as follows: Black poly-D-lysine coated 384-well plates (Product No. 354663, Corning Inc., NYC, U.S.) were used for PPARγ:
as §6
(§11) 781098, Greiner, Kremsmünster, Austria) were utilized for the MitoOxTox assay: 2650

[2] = tested on: Antioxidant response element; test: MitoOxTox: oxidative stress response in AREc32; settings: for EC10, linear / logEC10: Bioassay ARE, dosing range all; for EC10, linear: linear model fit; for logEC10: log-logistic model fit; for Specificity ratio (SRbaseline) SRARE: against baseline cytotoxicity; for Specificity ratio (SRcytotoxicity) SRARE: against experimental cytotoxicity; for ECIR1.5, ARE: effect; for ECIR1.5, ARE / ECIR1.5, ARE (M): induction ratio 1.5; for log(1/EC10) AREc32: input of the ToxPi score, values up to 1.00; for SR (ARE): specificity ratio
Text: as §1, §2, §3, §4, §5, §7, §8, §9, §10, §6, §11

[3] = Acidity constant (pKa) measurement, Sirius T3 UV-metric, and speciation at pH 7.4; settings: for αneutral % (fraction of neutral species): pH 7.4; for pKa: phosphate buffer with […] KCl, Sirius T3 titrator, pKa (Acid), experimental, this study
Procedure: Physicochemical properties provide input parameters for the baseline toxicity model. Acidity constants (pK a) and octanol–water partition constants of the neutral species (K ow) were measured with a Sirius T instrument from Pion Inc. (Sussex, UK) (Text S1.2 and Table S1). A detailed description of the pK a and K ow measurements can be found in literature. , […]
S1.2: pKa and log Kow measurements […]
titrator (Pion Inc., Sussex, U.K.). A detailed description of the experimental procedure is available in the literature.1 In brief, each sample was prepared by mixing 5 µL of a 10 mM dimethyl sulfoxide (DMSO) stock solution with 25 µL of a phosphate buffer solution (14.4 mM […]
A reference vial containing 5 µL of DMSO
(Roth, A994-100 ML) and 25 µL of phosphate buffer was analyzed alongside each sample.
The pKa values were determined using the automated UV-metric pKa protocol within the Sirius T3 Control software (version 2.0.0.0.). Each sample was subjected to three consecutive […]
from 2 to 12 by stepwise addition of 0.5 M HCl or 0.5 M potassium hydroxide while recording […]
UV absorbance. […]
To ensure reproducibility, measurements were conducted on at least two

[4] = Arec32, read-out: EC10, linear transformed
[5] = read-out: EC10, linear transformed
[6] = Arec32, read-out: EC10, MMP (M)

| Structure (SMILES) | EC10 ([1]; Arec32, read-out: EC10, linear) [M] | EC10 [1, 4] [M] | EC10 ([1]; Arec32, read-out: logEC10) [M] | log(1/EC10) MMP [1] | EC10 (SH-SY5Y cells; [5]) [M] | EC10 (SH-SY5Y cells; read-out: logEC10) [M] | EC10, linear (SH-SY5Y cells; NOI bioassay, dosing range all) | EC10 [2, 4] [µM] | EC10, linear [2] | logEC10 [2] | Negative form (pH = 7.40) ([3]; from experimental pKa) [%] | Neutral form (pH = 7.40) ([3]; from experimental pKa) [%] | αneutral % (fraction of neutral species) ([3]; from experimental pKa) [%] | pKa [3] | EC10 ([1]; Arec32, read-out: EC10, MMP) [M] | EC10 [1, 6] [M] | Specificity ratio (SRbaseline) SRMMP [1] | Specificity ratio (SRcytotoxicity) SRMMP [1] | Relative effect potency REPMMP [1] | SR (MMP inhibition) [1] | also measured |
| --- | --- | --- | --- | --- | --- | --- | --- | --- | --- | --- | --- | --- | --- | --- | --- | --- | --- | --- | --- | --- | --- |
| COC(=O)C(c1ccc(O)cc1)c1ccc(O)cc1 [Bz, Methyl bis(4-hydroxyphenyl)acetate] | 3.72e-05 | 5.74e-05 | 6.46e-05 | 0.84 | 0.0004 | 0.00038 | no effect | 2200 | no effect | no effect | 26 | 71 | 71 | 7.83 | – | – | – | – | – | – | Double negative form (pH = 7.40) ([3]; from experimental pKa): 3%; pKa ([3]; second pKa column): 8.34 |
| O=C(OCc1ccccc1)c1ccc(O)cc1 [BzPB, Benzyl 4-hydroxybenzoate] | 1.68e-05 | 2.45e-05 | 2.45e-05 | – | 0.000412 | – | no effect | 16.7 | – | – | 0.599 | 99 | 99 | 9.62 | 2.44e-05 | 2.44e-05 | 1.38 | 12.18 | 1.15 | > 10 | logEC10 (SH-SY5Y cells; NOI bioassay, dosing range all, log-logistic model): no effect; EC10 ([2]; Arec32, read-out: EC10, linear): 32.1 µM; EC10 ([2]; Arec32, read-out: logEC10): 19.5 µM; Specificity ratio (SRbaseline) SRARE [2]: 1.73; Specificity ratio (SRcytotoxicity) SRARE [2]: 4.62; ECIR1.5, ARE [2]: 19.4 µM; ECIR1.5, ARE (M) [2]: 1.94 × 10^–5 M; log(1/EC10) AREc32 [2]: 1.00; SR (ARE) [2]: < 10 |
| CC(C)Oc1ccc(S(=O)(=O)c2ccc(O)cc2)cc1 [D8, 4-((4-Isopropoxyphenyl)sulfonyl)phenol] | 5.8e-05 | 5.14e-05 | 5.25e-05 | – | 0.000186 | 0.000191 | – | 932 | – | – | 39 | 61 | 61 | 7.6 | 5.2e-05 | 5.2e-05 | 2.47 | 41.11 | 0.54 | 41 | EC10 (SH-SY5Y cells; read-out: EC10, NOI): 0.000191 M; EC10 (SH-SY5Y cells; read-out: EC10, NOI (M)): 0.000191 M; EC10 (SH-SY5Y cells; read-out: EC10, linear): 0.000353 M; Specificity ratio (SRbaseline) SRNOI (SH-SY5Y cells): 0.56; Specificity ratio (SRcytotoxicity) SRNOI (SH-SY5Y cells): 2.56; Relative effect potency REPNOI (SH-SY5Y cells): 0.27; EC10 ([2]; Arec32, read-out: EC10, linear): 1080 µM; EC10 ([2]; Arec32, read-out: logEC10): 1230 µM; Specificity ratio (SRbaseline) SRARE [2]: 0.11; Specificity ratio (SRcytotoxicity) SRARE [2]: 1.77; ECIR1.5, ARE [2]: 1220 µM; ECIR1.5, ARE (M) [2]: 1.22 × 10^–3 M; log(1/EC10) AREc32 [2]: 0.62; SR (ARE) [2]: < 10 |
| Cc1ccc(S(=O)(=O)NC(=O)Nc2cccc(OS(=O)(=O)c3ccc(C)cc3)c2)cc1 [Pergafast, N-(p-toluenesulfonyl)-N'-(3-(p-toluenesulfonyloxy)phenyl)urea] | – | – | – | 0.92 | 1.52e-05 | 1.51e-05 | – | – | no effect | no effect | 100 | 0.089 | 0.089 | 4.35 | – | – | – | – | – | – | EC10, linear ([1]; MMP bioassay, dosing range all, linear model): no effect; logEC10 ([1]; MMP bioassay, dosing range all, log-logistic model): no effect; EC10 (SH-SY5Y cells; read-out: EC10, NOI): 1.25e-05 M; EC10 (SH-SY5Y cells; read-out: EC10, NOI (M)): 1.25e-05 M; EC10 (SH-SY5Y cells; read-out: EC10, linear): 1.25e-05 M; Specificity ratio (SRbaseline) SRNOI (SH-SY5Y cells): 8.80; Specificity ratio (SRcytotoxicity) SRNOI (SH-SY5Y cells): 3.95; Relative effect potency REPNOI (SH-SY5Y cells): 4.06 |
